From patent US20240180898A1, “USE OF AMINOTHIAZOLE DERIVATIVE IN TREATMENT OF IMMUNE INFLAMMATION” (INNAMUNE PHARMACEUTICAL CO. LTD., priority 2021, published 2024)

How the values were obtained:
[1] = tested on: Balb/c mouse psoriasis model; experiment: mouse psoriasis model (imiquimod cream); format: in vivo
Source text: (§1) Preparation and grouping of mouse […] model:
Model preparation: Male Balb/c mice aged 6-8 weeks were shaved on the back skin and coated with 5% imiquimod (IMQ) cream once a day for 7 consecutive days.
The experiment was divided into three groups, namely: • Psoriasis control group (without any treatment, psoriasis model group), TJ-M2010-5 systemic medication group (intraperitoneal injection), and TJ-M2010-5 local medication group (ointment group). The specific handling method is as follows: • TJ-M2010-5 systemic medication group: A Balb/c mouse psoriasis model was taken and TJ- M2010-5 was injected intraperitoneally at a dose of 50 mg/kg, once a day, for 2 consecutive weeks. • TJ-M2010-5 local medication group: A Balb/c mouse psoriasis model was taken, and 1% TJ-M2010-5 ointment was applied on the skin, once a day, for 2 consecutive weeks.

[2] = tested on: mouse eczema model; experiment: mouse atopic dermatitis/eczema model; format: in vivo
Procedure: as §1
Model preparation: Male C57 mice aged 6-8 weeks were treated with 2% M7309 (carboplatin) ointment on their ears once a day for 10 consecutive days.
The experiment was divided into three groups, namely: • Eczema control group (without any treatment, eczema model group), TJ-M2010-5 systemic medication group (intraperitoneal injection), and TJ-M2010-5 local medication group (ointment group). The specific handling method is as follows: • TJ-M2010-5 systemic medication group: A mouse eczema model was taken and TJ-M2010-5 was injected intraperitoneally at a dose of 50 mg/kg, once a day, for 2 consecutive weeks. • TJ-M2010-5 local medication group: Take a mouse eczema model, apply 1% TJ-M2010-5 ointment on the skin, once a day, for 2 consecutive weeks.

[3] = tested on: inflammatory colon cancer model; experiment: AOM/DSS induced inflammatory colon cancer model; format: in vivo, mouse
Procedure: Preparation and grouping of mouse inflammatory colon cancer model:
Model preparation: 6-8-week-old male C57 mice were intraperitoneally injected with AOM (10 mg/Kg)/DSS (2.5%) to induce an inflammatory colon cancer model.
The experiment was divided into two groups, namely: • Inflammatory colon cancer model group (without any treatment, i.e. AOM/DSS group), TJ-M2010-5 medication group (intraperitoneal injection). The specific handling method is as follows: • TJ-M2010-5 medication group: Two days before inducing inflammatory colon cancer in C57 mice by intraperitoneal injection of AOM (10 mg/kg)/DSS (2.5%), TJ-M2010-5 was injected intraperitoneally at a dose of 50 mg/kg once a day for 10 consecutive weeks.

[4] = drug concentration in blood after skin ointment on maximum body area; format: in vivo; conditions: skin ointments applied to the maximum body area
[5] = tested on: middle cerebral artery occlusion (MCAO) model; experiment: reperfusion injury after acute cerebral infarction (MCAO model); format: in vivo, mouse; conditions: 15 mg/kg intravenously, 1 hour ischemia, 24 hours reperfusion
Procedure: Preparation and grouping of a mouse model of reperfusion injury after acute cerebral infarction: Model preparation: Adult male C57BL/6 mice (8-10 weeks old, weighing 22-25 g) were fasted for 8 hours before surgery and allowed to drink freely. Intraperitoneal injection of 1% pentobarbital sodium solution for anesthesia. […]

[6] = tested on: IRI model of mouse liver; experiment: hepatic IRI model, western blotting of liver protein; conditions: in vivo
Source text: The IRI model of mouse liver was established. Animals were divided into three groups: Sham group, IRI group and IRI+TJ-5 group. Protein extracted from mouse liver was detected.

[7] = tested on: dry eye disease model; experiment: experimental dry eye (EDE) model; format: in vivo, mouse; conditions: day 9, vs EDE group
Source text: Dry eye disease was induced by placing mice in a experimental dry eye (EDE) condition and administering scopolamine to maximize ocular surface dryness. Animals were divided into three groups: non-EDE group, EDE group and EDE+TJ-5 group. Mice were euthanized on day 9 for cellular and molecular analysis.

[8] = tested on: skin wound; experiment: full-thickness dorsal skin wound model; format: in vivo, mouse
Source text: The mice were anesthetized with isoflurane, and 1.5×0.5 cm full-thickness defects were created on their dorsal skin. Animals were divided into three groups: Sham group, Vehicle group and TJ-5 group. After 1 week, mice were sacrificed and wound tissue was harvested for analysis.

[9] = intraperitoneal 50 mg/kg once a day, 10 weeks

In the case of `O=C(CCN1CCN(Cc2ccccc2)CC1)Nc1nc(-c2ccccc2)cs1` [INNA1605, 3-(4-benzylpiperazine-1-yl)-N-(4-phenylthiazole-2-yl) propionamide], the “therapeutic effect, local medication” value ([1]; 1% ointment on the skin once a day, 2 weeks) is reported as “excellent therapeutic effects, with a significant improvement after 7 days and a cure effect achieved after 14 days”, the “infiltration and proliferation of mast cells” value ([1]; H&E and C-kit (CD117) staining) is reported as “inhibits the infiltration and proliferation of mast cells” and the “abnormally thickened stratum corneum” value ([1]; after treatment) is reported as “can basically restore normal tissue structure after treatment”. The “inflammatory cells in the skin” value ([1]; both treatments (systemic and local)) was “significantly reduce inflammatory cells in the skin”, the “imbalance of spleen T cells and their subsets” value ([1]; flow cytometry) was “correct the imbalance of spleen T cells and their subsets” and the “therapeutic effect, systemic medication” value ([1]; intraperitoneal 50 mg/kg once a day, 2 weeks) was “excellent therapeutic effects, with a significant improvement after 7 days and a cure effect achieved after 14 days”. For the same compound, the “excessive keratinization and proliferation of skin keratinocytes” value ([1]; mouse, in vivo) was “inhibit excessive keratinization and proliferation of skin keratinocytes”, the “expression of CD80” value ([1]; mouse, in vivo) was “significantly reduces the expression of CD80” and the “expression of intradermal lymphokines (IL-1beta, IL-6, IL-17a, TNF-alpha, MyD88 mRNA, Cxcl2 mRNA)” value ([1]; mouse, in vivo) was “inhibits the expression of intradermal lymphokines”. For the same compound, the skin thickness ([1]; mouse, in vivo) was “significant thinning of skin thickness”, the splenomegaly ([1]; mouse, in vivo) was “can improve splenomegaly” and the MAPK signaling pathway ([1]; psoriasis model skin) was “inhibits the MAPK signaling pathway”. The “synthesis and secretion of inflammatory factors” value ([1]; skin) was “inhibiting the synthesis and secretion of inflammatory factors”, the “immune cell infiltration and activation (macrophages, neutrophils, mast cells)” value ([1]; skin tissue) was “a reduction in immune cell infiltration and activation” and the “therapeutic effect, local medication” value ([2]; 1% ointment once a day, 2 weeks) was “excellent therapeutic effects”. The “abnormally thickened stratum corneum” value ([2]; after treatment) was “can basically restore normal tissue structure”, the inflammation ([2]; after treatment) was “significantly reduced” and the “various inflammatory factors in the skin” value ([2]; mouse, in vivo) was “decreased”. The “proliferation of epithelial cells in the colon mucosa” value ([3]; BrdU, Ki-67) was “significantly inhibited”, the neutrophil infiltration ([3]; MPO staining of colon mucosa) was “significantly reduced” and the “inflammatory tissue damage of the colon mucosa” value [3, 9] was “significantly reduced”. The therapeutic effect [3, 9] was “excellent”, the no carcinogenesis observed ([3]; model group 100% cancerous transformation) was 100% and the colitis ([3]; mouse, in vivo) was “disappeared”. For the same compound, the mucosal thickening ([3]; mouse, in vivo) was “improved”, the “drug concentration in the blood” value [4] was 2 to 3 ng/mL and the “reduction of infarct volume of acute cerebral infarction” value [5] was 80%. The “GSDMD cleavage in liver” value [6] was “effectively inhibited GSDMD cleavage”, the “NLRP3, cleavage of caspase-1 (upregulated) and pro-caspase-1 (downregulated) following IRI” value [6] was “this trend was reversed” and the “cleavage of caspase-11” value [6] was “effectively inhibited cleavage of caspase-11”. For the same compound, the “corneal fluorescein staining score” value [7] was “significantly lower corneal fluorescein staining score”, the “expression of IL-1β, TNF-α, MCP-1 and IL-6 in corneal tissues” value [7] was “reduced expression” and the skin scar formation ([8]; FIG. 42) was “prevents skin scar formation”. For the same compound, the “levels of IL-1β, IL-6, TNF-α, G-CSF, Col I, and α-SMA mRNAs in wound tissue” value ([8]; after 1 week, vs untreated) was “significantly lower” and the wound area ([8]; vs vehicle) was “significant decrease in wound area compared to the vehicle”.
